From US20080167201A1, “Method For Synthesizing Derivative, Compound Library and Method For Constructing the Same, and Method For Screening” (priority 2004, published 2008) come the findings set out here.

Experiment [1] concerns HT-29 cells derived from human colon cancer. Description: ATP synthesis (ATP content by luciferase luciferin) in HT-29 cells. Particulars: 3 hr incubation, same concentration range as inhibits cell migration (FIG. 5). Type of experiment: cell-based. As to the method: 1 ml of suspension of HT-29 cells derived from human colon cancer (4×10^5 cells/ml; RPMI1640 medium) was added to each well of a 24-well plate and incubated at 37° C. for 24 hr. Then, migrastatin or oxidized migrastatin was added thereto and incubated for 3 hr. In addition, a cultured broth to which migrastatin and oxidized migrastatin were not added was similarly incubated as a control. After the incubation, each well was washed twice with ice-cooled PBS^−. After an addition of 200 μl of 2% trichloroacetic acid, the plate was left at 4° C. for 30 min. The supernatant (160 μl) was neutralized with 36.8 μl of 0.5 N NaOH and used as a sample. This sample (160 μl) was added to 3 ml of PBS^− containing 4 mM MgCl2. Then, 40 μl of 4 mg/ml luciferase luciferin (Sigma) was added thereto and immediately the ATP content was measured with a single-photon monitor of a scintillation counter (LS-5000TD: BECKMAN COULTER). In addition, the ATP content under the conditions where the sample and luciferase luciferin were not added was measured as a blank value and was subtracted from each measurement value.

Experiment [2] deals with EC17 cells derived from human esophageal cancer. The experiment in a line: cell migration inhibition, scratch assay with EC17 cells. Type of experiment: cell-based. The settings on record: compound added immediately after scratching, 24 hr incubation, microscopic observation (FIG. 4). As to the method:
500 μl of suspension of EC17 cells derived from human esophageal cancer (1.5×10^5 cells/ml; RPMI1640 medium (Nissui)) was added to each well of a 48-well plate and incubated at 37° C. for 24 hr. Then, the cells were linearly scraped off by scratching the center of the bottom of each well in a straight line with a micropipette tip. Then, the supernatant of the culture broth was immediately removed. The well was washed with 300 μl of PBS^− (8 g/l NaCl, 0.2 g/l KCl, 0.916 g/l Na2HPO4, 0.2 g/l KH2PO4) carefully not to scrape the remaining cells, and 500 μl of a RPMI1640 medium containing 1% serum (FBS; manufactured by Tissue Culture Biologicals) was gently added to the well. Further, migrastatin or oxidized migrastatin was added thereto and incubated at 37° C. for 24 hr. In addition, a culture broth to which migrastatin and oxidized migrastatin were not added was similarly incubated as a control. After the incubation, how much the straight line formed with the micropipette tip was filled with cells which had migrated from surroundings was confirmed by microscopic observation to evaluate migration of the cells.

Structures are written as SMILES.

Consider `CO[C@H]1/C=C/CC/C=C/C(=O)O[C@H]([C@H](C)C(=O)CCCC2CC(=O)NC(=O)C2)/C(C)=C\[C@@H](C)C1=O` [oxidized migrastatin, migrastatin oxide], for which, in experiment [1], the “inhibition of ATP synthesis” value was “did not inhibit ATP synthesis at all”. For the same compound, the “inhibition of migration of cells over the concentration range” value in experiment [2] is listed as “inhibition effect was observed at almost the same concentration range”.

For `CO[C@H]1/C=C/CC/C=C/C(=O)O[C@H]([C@H](C)C(=O)CCCC2CC(=O)NC(=O)C2)/C(C)=C\[C@@H](C)[C@@H]1O` [migrastatin], the “inhibition of ATP synthesis” value in experiment [1] is given as “inhibited ATP synthesis”. Also, in experiment [2] (concentration of 30 μl/ml), the migration of cells entry is on record as “completely inhibited”. Besides, in experiment [2], the “inhibition of migration of cells over the concentration range” value is recorded as “inhibited depending on the concentration of migrastatin”.
